Here are results for 38 compounds from patent publication US20260125359A1, “HETEROARYL COMPOUNDS AS MULTI-TARGET PROTEIN KINASE INHIBITORS” (FUJIAN HAIXI PHARMACEUTICALS CO., LTD., priority 2023, published 2026).

Molecules are shown by their SMILES. Where only a bound is given, the exact number is not on record here.

This assay has as its system M-NFS-60 cells. The assay can be described thus: M-NFS-60 cell in vitro assay (CCK, 48 h, M-CSF factor medium). Format: cell-based. The note with it: M-NFS-60 cells; read-out: M-NFS-60cellassay IC50. The procedure:
To determine the inhibitory activity of compounds on M-NFS-60 cells.
• M-NFS-60 cell line (ATCC, Cat. No.: CRL-1838) • RPMI-1640 medium (Gibco, domestic subpackage, Cat. No.: C11875500BT) • Recombinant Mouse CSF1/M-CSF (Sino Biological Inc., Cat. No.: 51112-MNAH) • PAN/Serum (BioTECH, Cat. No.: P30-2602) • Trypsin/0.05% Trypsin-EDTA (Gibco, Cat. No.: 25300-062) • 0.4% Trypan Blue (Sigma, Cat. No.: T8154-20 ml) • Penicillin-Streptomycin (Hyclone, Cat. No.: SV30010) • DMSO (Solarbio, Cat. No.: D8371) • PBS (Solarbio, Cat. No.: P1020) • CCK (AbMole BioScience, Cat. No.: M4839-500Tests)
• 1) M-CSF factor stock solution: take 10 μg of powdered m-CSF factor, add 0.4 ml of saline, formulate 25 ug/ml and store at −80° C. • 2) M-CSF factor (25 ng/ml) medium: • 1640 (Gibco)+10% PAN+100×Penicillin-Streptomycin+100×M-CSF stock solution • 3) Complete medium: • 1640 (Gibco)+10% PAN+100×Penicillin-Streptomycin • 4) Compound preparation: 2-3 mg of the compound was added to DMSO to formulate a 30 mM stock solution, −80° C. refrigerator storage
• 1) Cell resuscitation: the frozen cells in the cryovial were thawed rapidly by shaking in a 37° C. water bath, then 4 mL of medium was added. After mixing evenly, they were centrifuged at 125×g for 5 min, and the supernatant was discarded. The cells were resuspended and transferred to the culture flasks, and were cultured in a 5% CO2 fully saturated humidity incubator. • 2) Cell passaging: M-NFS-60 cells are semi-suspension cells, which were collected directly in a 15 mL centrifuge tube, centrifuged at 125×g for 5 min. and the supernatant was discarded. The cells were resuspended and passaged into new culture flasks at a ratio of 1:5 to 1:10. • 3) After the newly resuscitated cells were passaged 1-2 times for cell stabilization, compound inhibition assays were started when the cells were in the logarithmic growth phase. • (a) Cell collection and counting: the same as the cell passaging step, centrifuge in two tubes, one tube with M-CSF factor medium to resuspend the cells, the other tube with complete medium to resuspend the cells. Take 10 μL of cell suspension in each tube, and count the cells by Tepan blue staining. • (b) Dilute the cell solution according to the concentration of inoculated cells respectively, the concentration of M-NFS-60 cells inoculated with factor was 5.56×10^4 cells/mL, and the concentration of inoculated without factor was 5×10^4 cells/mL. • (c) Seed plate: 384 well plate inoculated with M-NFS-60 cells, 36 uL/well, triplicate wells, the number of inoculated cells was equivalent to 2000 cells/well, set with blank control, factor free negative control, normal control, DMSO control and experimental wells. The cells were placed in a 5% CO2 fully saturated humidity incubator for 4 h. • (d) Sampling compounds: 96 well plates were used for compound preparation. The compound solution prepared in advance was diluted to corresponding gradient concentration with DMSO. An appropriate amount of the diluted solution in the previous step was added to an equal volume of factor containing medium. The 96 well plates were centrifuged at 1000 rpm for 5 min, which played the role of defoaming and spinning down droplets and condensation. Remove the 384 well plate from the incubator, add the diluted compound solution into each well sequentially, 4 μL/well; DMSO wells and normal wells were added with corresponding factor containing medium, 4 μL/well. Then it was put into CO2 incubator for 48 h. • (e) After incubation for 48 h, CCK was added to each well, 4 uL, and the plates were placed in the incubator for another 2 h, and then the OD (optical density) value at 450 nm was measured by microplate reader.
The IC50 values for each test compound were fitted using professional graphing and analysis software.
Consider `Cc1cccc(C(=O)Nc2c(F)ccc3c2CC[C@@H]3Nc2cncc(-c3cnn(C)c3)c2)c1` (stereo in doubt) [Compound 43, N-(5-fluoro-1-((5-(1-methyl-1H-pyrazol-4-yl)pyridin-3-yl)amino)-2,3-dihydro-1H-inden-4-yl)-3-methylbenzamide], for which the IC50 is 200 to 500 nM.
Take `COc1cccc(C(=O)Nc2cccc3c2CCC3Oc2cc(-c3cnn(C)c3)cnc2N)c1` (centres unmarked) [Compound 1, N-(1-((2-amino-5-(1-methyl-1H-pyrazol-4-yl)pyridin-3-yl)oxy)-2,3-dihydro-1H-inden-4-yl)-3-methoxybenzamide]: the half-maximal inhibitory concentration (IC50) lay within 50 to 200 nM.
Take `COc1cccc(C(=O)Nc2cccc3c2CCC3Oc2cc(Br)cnc2N)c1` (centres unmarked) [Compound 1f, N-(1-((2-amino-5-bromopyridin-3-yl)oxy)-2,3-dihydro-1H-inden-4-yl)-3-methoxybenzamide]: the half-maximal inhibitory concentration (IC50) is 50 to 200 nM.
For `COc1cccc(C(=O)Nc2cccc3c2CCCC3Oc2cc(-c3cnn(C)c3)cnc2N)c1` (centres unmarked) [Compound 2a], the IC50 is more than 500 nM.
On to `COc1cccc(C(=O)Nc2cccc3c2OCCC3Oc2cc(Br)cnc2N)c1` (centres unmarked) [Compound 2b], for which the IC50 was more than 500 nM.
In the case of `COc1cccc(C(=O)Nc2cccc3c2OCCC3Oc2cc(-c3cnn(C)c3)cnc2N)c1` (centres unmarked) [Compound 2c], the IC50 was in the range of 200 to 500 nM.
Next, `COc1cccc(C(=O)Nc2cccc3c2CC[C@H]3Oc2cc(-c3cnn(C)c3)cnc2N)c1` [Compound 3a]: more than 500 nM; `COc1cccc(C(=O)Nc2cccc3c2CC[C@@H]3Oc2cc(-c3cnn(C)c3)cnc2N)c1` [Compound 3b]: less than 50 nM.
In the case of `Cn1cc(-c2cnc(N)c(O[C@H]3CCc4c(NC(=O)c5ccc6c(c5)OC(F)(F)O6)cccc43)c2)cn1` [Compound 3c], the IC50 is 50 to 200 nM.
On to `Cn1cc(-c2cnc(N)c(O[C@H]3CCc4c(NC(=O)c5csc6ccccc56)cccc43)c2)cn1` [Compound 3d], for which the IC50 was less than 50 nM.
Turning to `Cn1cc(-c2cnc(N)c(O[C@H]3CCc4c(NC(=O)c5cccc(C(F)(F)F)c5)cccc43)c2)cn1` [Compound 3e], the half-maximal inhibitory concentration (IC50) was less than 50 nM.
For the compound `Cc1ccc(C(=O)Nc2cccc3c2CC[C@@H]3Oc2cc(-c3cnn(C)c3)cnc2N)cc1C` [Compound 3f], the IC50 was less than 50 nM.
Next, `Cn1cc(-c2cnc(N)c(O[C@H]3CCc4c(NC(=O)c5cccc(C6CC6)c5)cccc43)c2)cn1` [Compound 3g]: less than 50 nM.
On to `Cn1cc(-c2cnc(N)c(O[C@H]3CCc4c(NC(=O)c5cccc(CN6CCCCC6)c5)cccc43)c2)cn1` [Compound 3h], for which the concentration for half-maximal inhibition (IC50) is more than 500 nM.
For `Cn1cc(-c2cnc(N)c(O[C@H]3CCc4c(NC(=O)c5cccc(CN6CCCC6)c5)cccc43)c2)cn1` [Compound 3i], the concentration for half-maximal inhibition (IC50) was more than 500 nM.
Under `CN(C)Cc1cccc(C(=O)Nc2cccc3c2CC[C@@H]3Oc2cc(-c3cnn(C)c3)cnc2N)c1` [Compound 3j] stands more than 500 nM.
In the case of `Cn1cc(-c2cnc(N)c(O[C@H]3CCc4c(C(=O)Nc5cccc(CN6CCCCC6)c5)cccc43)c2)cn1` [Compound 5b], the IC50 fell in the range of 50 to 200 nM.
Regarding `Cn1cc(-c2cnc(N)c(O[C@H]3CCc4c(C(=O)Nc5cccc(CN6CCCC6)c5)cccc43)c2)cn1` [Compound 5c], the half-maximal inhibitory concentration (IC50) was in the range of 50 to 200 nM.
Take `CN(C)Cc1ccc(NC(=O)c2cccc3c2CC[C@@H]3Oc2cc(-c3cnn(C)c3)cnc2N)cc1` [Compound 5d]: the half-maximal inhibitory concentration (IC50) was less than 50 nM.
As to `CN(C)Cc1cccc(NC(=O)c2cccc3c2CC[C@@H]3Oc2cc(-c3cnn(C)c3)cnc2N)c1` [Compound 5e], the IC50 is less than 50 nM.
`Cc1cc(C(=O)Nc2cccc3c2CC[C@@H]3Nc2cc(-c3cnn(C)c3)cnc2N)ccc1F` [Compound 6, (S)—N-(1-((2-amino-5-(1-methyl-1H-pyrazol-4-yl)pyridin-3-yl)amino)-2,3-dihydro-1H-inden-4-yl)-4-fluoro-3-methylbenzamide]: the IC50 is 50 to 200 nM.
Turning to `Nc1ncc(Cl)cc1O[C@H]1CCc2c(C(=O)Nc3cccc(C4CC4)c3)cccc21` [Compound 7, (S)-1-((2-amino-5-chloropyridin-3-yl)oxy)-N-(3-cyclopropylphenyl)-2,3-dihydro-1H-indene-4-carboxamide], the concentration for half-maximal inhibition (IC50) is less than 50 nM.
With `Cc1cccc(C(=O)Nc2cccc3c2CCC3Nc2cncc(-c3cnn(C)c3)c2)c1` (centres unmarked) [Compound 8, 3-methyl-N-(1-((5-(1-methyl-1H-pyrazol-4-yl)pyridin-3-yl)amino)-2,3-dihydro-1H-inden-4-yl)benzamide], the half-maximal inhibitory concentration (IC50) is less than 50 nM.
Consider `Cc1cccc(C(=O)Nc2cccc3c2CCC3Nc2cncc(Br)c2)c1` (centres unmarked) [Compound 8d, N-(1-((5-bromopyridin-3-yl)amino)-2,3-dihydro-1H-inden-4-yl)-3-methylbenzamide], for which the 50% inhibitory concentration (IC50) is 50 to 200 nM.
In the case of `Cn1cc(-c2cncc(NC3CCc4c(NC(=O)c5ccc6c(c5)OC(F)(F)O6)cccc43)c2)cn1` (centres unmarked) [Compound 9, 2,2-difluoro-N-(1-((5-(1-methyl-1H-pyrazol-4-yl)pyridin-3-yl)amino)-2,3-dihydro-1H-inden-4-yl)benzo[d][1,3]dioxole-5-carboxamide], the IC50 is 50 to 200 nM.
Under `O=C(Nc1cccc(C2CC2)c1)c1cccc2c1CC[C@@H]2Nc1cncc(Br)c1` [Compound 10, (S)-1-((5-bromopyridin-3-yl)amino)-N-(3-cyclopropylphenyl)-2,3-dihydro-1H-indene-4-carboxamide] stands 50 to 200 nM.
Under `O=C(Nc1cccc2c1CC[C@@H]2Nc1cncc(Br)c1)c1cccc(C2CC2)c1` [Compound 11, (S)—N-(1-((5-bromopyridin-3-yl)amino)-2,3-dihydro-1H-inden-4-yl)-3-cyclopropylbenzamide] stands 50 to 200 nM.
Turning to `Cc1cccc(C(=O)Nc2cccc3c2CC[C@@H]3Nc2cncc(-c3cnn(C)c3)c2)c1` [Compound 12, (S)-3-methyl-N-(1-((5-(1-methyl-1H-pyrazol-4-yl)pyridin-3-yl)amino)-2,3-dihydro-1H-inden-4-yl)benzamide], the IC50 was less than 50 nM.
Turning to `Cc1ccc(F)c(NC(=O)c2cccc3c2CC[C@@H]3Nc2cncc(-c3cnn(C)c3)c2)c1` [Compound 14ac], the half-maximal inhibitory concentration (IC50) is less than 50 nM.
Regarding `Cn1cc(-c2cncc(N[C@H]3CCc4c(C(=O)Nc5ccc(Cl)c(C(F)(F)F)c5)cccc43)c2)cn1` [Compound 14ad], the IC50 is less than 50 nM.
On to `Cn1cc(-c2cncc(N[C@H]3CCc4c(C(=O)Nc5ccccc5F)cccc43)c2)cn1` [Compound 14ae], for which the IC50 was less than 50 nM.
In the case of `COc1cc(NC(=O)c2cccc3c2CC[C@@H]3Nc2cncc(-c3cnn(C)c3)c2)ccc1F` [Compound 14af], the IC50 is less than 50 nM.
Take `Cn1cc(-c2cncc(N[C@H]3CCc4c(C(=O)Nc5nn(C)c6ccccc56)cccc43)c2)cn1` [Compound 14ag]: the IC50 is less than 50 nM.
As to `CN1CCN(c2cccc(NC(=O)c3cccc4c3CC[C@@H]4Nc3cncc(-c4cnn(C)c4)c3)c2)CC1` [Compound 14ai], the half-inhibitory concentration (IC50) fell in the range of 50 to 200 nM.
With `CN1CCN(Cc2ccc(NC(=O)c3cccc4c3CC[C@@H]4Nc3cncc(-c4cnn(C)c4)c3)cc2)CC1` [Compound 14aj], the half-maximal inhibitory concentration (IC50) is 50 to 200 nM.
For `Cn1cc(-c2cncc(N[C@H]3CCc4c(C(=O)Nc5cncc(C(F)(F)F)c5)cccc43)c2)cn1` [Compound 14ak], the IC50 is less than 50 nM.
`Cn1cc(-c2cncc(N[C@H]3CCc4c(C(=O)Nc5ccc(C(F)(F)F)cc5)cccc43)c2)cn1` [Compound 14al]: the 50% inhibitory concentration (IC50) was less than 50 nM.
For the compound `COc1ccc(NC(=O)c2cccc3c2CC[C@@H]3Nc2cncc(-c3cnn(C)c3)c2)cc1` [Compound 14am], the IC50 is less than 50 nM.

The term IC50 denotes the concentration that inhibits the measured activity by half.
